Experimental data from US12617798B2, “Imidazopyrazne derivatives” (Hoffmann-La Roche Inc., priority 2020, dated 2026).
Structures can show the parent of a compound that is named as a salt.

Assays:
[1] = system: Acinetobacter baumannii ATCC17961; experiment: Antimicrobial susceptibility testing, 90% growth inhibitory concentration (IC90) determination; format: cell-based; settings: Iso-Sensitest broth, OD 600 nm over 16 h, 35±2° C., read-out: ATCC 17961 IC90
Protocol: (§1) 90% Growth Inhibitory Concentration (IC90) Determination The in vitro antimicrobial activity of the compounds was determined according to the following procedure: The assay used a 10-points Iso-Sensitest broth medium to measure quantitatively the in vitro activity of the compounds against Acinetobacter baumannii ATCC17961 and Pseudomonas aeruginosa ATCC27853. Stock compounds in DMSO were serially twofold diluted (e.g. range from 50 to 0.097 μM final concentration) in 384 wells microtiter plates and inoculated with 49 μl the bacterial suspension in Iso-Sensitest medium to have a final cell concentration of ˜5×10^(5) CFU/ml in a final volume/well of 50 ul/well. Microtiter plates were incubated at 35±2° C. Bacterial cell growth was determined with the measurement of optical density at λ=600 nm each 20 minutes over a time course of 16 h. Growth inhibition was calculated during the logarithmic growth of the bacterial cells with determination of the concentration inhibiting 50% (IC50) and 90% (IC90) of the growth. Table 1 provides the 90% growth inhibitory concentrations (IC90) in micromoles per liter of the compounds of present invention obtained against the strain Acinetobacter baumannii ATCC17961.

[2] = system: Pseudomonas aeruginosa ATCC27853; experiment: as above; format: cell-based; settings: Iso-Sensitest broth, OD 600 nm over 16 h, 35±2° C., read-out: ATCC 27853 IC90
Protocol: as §1, with “Table 2” for “Table 1”, “strain Pseudomonas aeruginosa ATCC27853.” for “strain Acinetobacter baumannii ATCC17961.”

Compound: CCc1cc(Nc2nccn3c(-c4ccc(-c5c[nH]nc5C)cc4)cnc23)ccc1C(=O)NCC1CC[N+](C)(CC2CNC2)CC1 (stereo not shown) [Example B5, N-[[1-(azetidin-3-ylmethyl)-1-methyl-piperidin-1-ium-4-yl]methyl]-2-ethyl-4-[[3-[4-(3-methyl-1H-pyrazol-4-yl)phenyl]imidazo[1,2-a]pyrazin-8-yl]amino]benzamide; formic acid; formate]
- IC90 [1]: 100 nM
- IC90 [2]: 98 nM

Compound: CCc1cc(Nc2nccn3c(-c4ccc(-c5cn(CCOC)nc5C)c(F)c4F)cnc23)ccc1C(=O)NCC1CC[N+](C)(CC(N)=O)CC1 (stereo not shown) [Example C2, N-[[1-(2-amino-2-oxo-ethyl)-1-methyl - piperidin-1-ium-4-yl]methyl]-4-[[3-[2,3-difluoro-4-[1-(2-methoxyethyl)-3-methyl-pyrazol-4-yl]phenyl]imidazo[1,2-a]pyrazin-8-yl]amino]-2-ethyl-benzamide; formate]
- IC90 [1]: 290 nM
- IC90 [2]: 1200 nM

Compound: CCc1cc(Nc2nccn3c(-c4ccc(-c5cn(CCOC)nc5C)c(F)c4F)cnc23)ccc1C(=O)NCC1CC[N+](C)(CCO)CC1 (stereo not shown) [Example C3, 4-[[3-[2,3-difluoro-4-[1-(2-methoxyethyl)-3-methyl-pyrazol-4-yl]phenyl]imidazo[1,2-a]pyrazin-8-yl]amino]-2-ethyl-N-[[1-(2-hydroxyethyl)-1-methyl-piperidin-1-ium-4-yl]methyl]benzamide; formate]
- IC90 [1]: 430 nM
- IC90 [2]: 1600 nM

Compound: CCc1cc(Nc2nccn3c(-c4ccc(-c5c[nH]nc5C(F)(F)F)c(F)c4F)cnc23)ccc1C(=O)NCC1CCN(CC2CNC2)CC1 [Example A12, N-[[1-(azetidin-3-ylmethyl)-4-piperidyl]methyl]-4-[[3-[2,3-difluoro-4-[3-(trifluoromethyl)-1H-pyrazol-4-yl]phenyl]imidazo[1,2-a]pyrazin-8-yl]amino]-2-ethyl-benzamide; formic acid]
- IC90 [1]: 280 nM
- IC90 [2]: 430 nM

Compound: CCc1cc(Nc2nccn3c(-c4ccc(-c5c(C)nn(CCOC)c5C)c(F)c4F)cnc23)ccc1C(=O)NCC1CC[N+](C)(CC2CNC2)CC1 (stereo not shown) [Example C7, N-[[1-(azetidin-3-ylmethyl)-1-methyl-piperidin-1-ium-4-yl]methyl]-4-[[3-[2,3-difluoro-4-[1-(2-methoxyethyl)-3,5-dimethyl-pyrazol-4-yl]phenyl]imidazo[1,2-a]pyrazin-8-yl]amino]-2-ethyl-benzamide; formic acid; formate]
- IC90 [1]: 320 nM
- IC90 [2]: 390 nM

Compound: CCc1cc(Nc2nccn3c(-c4ccc(-c5c[nH]nc5C)c(F)c4F)cnc23)ccc1C(=O)NCC1CCN(CC2CNC2)CC1 [Example A1, N-[[1-(Azetidin-3-ylmethyl)-4-piperidyl]methyl]-4-[[3-[2,3-difluoro-4-(3-methyl-1H-pyrazol-4-yl)phenyl]imidazo[1,2-a]pyrazin-8-yl]amino]-2-ethyl-benzamide; formic acid]
- IC90 [1]: 47 nM
- IC90 [2]: 160 nM

Compound: CCc1cc(Nc2nccn3c(-c4ccc(-c5cn(CCOC)nc5C)c(F)c4F)cnc23)ccc1C(=O)NCC1CC[N+](C)(C)CC1 [Example C1, 4-[[3-[2,3-Difluoro-4-[1-(2-methoxyethyl)-3-methyl-pyrazol-4-yl]phenyl]imidazo[1,2-a]pyrazin-8-yl]amino]-N-[(1,1-dimethylpiperidin-1-ium-4-yl)methyl]-2-ethyl-benzamide; formate]
- IC90 [1]: 270 nM
- IC90 [2]: 1000 nM

Compound: CCc1cc(Nc2nccn3c(-c4ccc(-c5c(C)nn(CCOC)c5C)c(F)c4F)cnc23)ccc1C(=O)NCC1CC[N+](C)(CCO)CC1 (stereo not shown) [Example C6, 4-[[3-[2,3-difluoro-4-[1-(2-methoxyethyl)-3,5-dimethyl-pyrazol-4-yl]phenyl]imidazo[1,2-a]pyrazin-8-yl]amino]-2-ethyl-N-[[1-(2-hydroxyethyl)-1-methyl-piperidin-1-ium-4-yl]methyl]benzamide; formate]
- IC90 [1]: 440 nM
- IC90 [2]: 1200 nM

Compound: CCc1cc(Nc2nccn3c(-c4ccc(-c5c[nH]nc5C)c(F)c4F)cnc23)ccc1C(=O)NCC1CCN(CC(=O)O)CC1 [Example A3, 2-[4-[[[4-[[3-[2,3-difluoro-4-(3-methyl-1H-pyrazol-4-yl)phenyl]imidazo[1,2-a]pyrazin-8-yl]amino]-2-ethyl-benzoyl]amino]methyl]-1-piperidyl]acetic acid]
- IC90 [1]: 340 nM
- IC90 [2]: 1800 nM

Compound: CCc1cc(Nc2nccn3c(-c4ccc(-c5c[nH]nc5C)nc4F)cnc23)ccc1C(=O)NCC1CC[N+](C)(CC2CNC2)CC1 (stereo not shown) [Example B1, N-[[1-(Azetidin-3-ylmethyl)-1-methyl-piperidin-1-ium-4-yl]methyl]-2-ethyl-4-[[3-[2-fluoro-6-(3-methyl-1H-pyrazol-4-yl)-3-pyridyl]imidazo[1,2-a]pyrazin-8-yl]amino]benzamide; formic acid; formate]
- IC90 [1]: 1100 nM
- IC90 [2]: 120 nM

Compound: CCc1cc(Nc2nccn3c(-c4ccc(-c5cn(CCOC)nc5C)c(F)c4F)cnc23)ccc1C(=O)NCC1CC[N+](C)(CC2CNC2)CC1 (stereo not shown) [Example C4, N-[[1-(azetidin-3-ylmethyl)-1-methyl-piperidin-1-ium-4-yl]methyl]-4-[[3-[2,3-difluoro-4-[1-(2-methoxyethyl)-3-methyl-pyrazol-4-yl]phenyl]imidazo[1,2-a]pyrazin-8-yl]amino]-2-ethyl-benzamide; formic acid; formate]
- IC90 [1]: 460 nM
- IC90 [2]: 410 nM

Compound: CCc1cc(Nc2nccn3c(-c4ccc(-c5c[nH]nc5C)c(F)c4F)cnc23)ccc1C(=O)NCC1CC[N+](C)(CC(=O)O)CC1 (stereo not shown) [Example A4, 2-[4-[[[4-[[3-[2,3-difluoro-4-(3-methyl-1H-pyrazol-4-yl)phenyl]imidazo[1,2-a]pyrazin-8-yl]amino]-2-ethyl-benzoyl]amino]methyl]-1-methyl-piperidin-1-ium-1-yl]acetic acid; formate]
- IC90 [1]: 310 nM
- IC90 [2]: 1200 nM

Compound: CCc1cc(Nc2nccn3c(-c4ccc(-c5c[nH]nc5C)c(F)c4F)cnc23)ccc1C(=O)NCC1CC[N+](CC(=O)O)(CC2CNC2)CC1 (stereo not shown) [Example A5, 2-[1-(azetidin-3-ylmethyl)-4-[[[4-[[3-[2,3-difluoro-4-(3-methyl-1H-pyrazol-4-yl)phenyl]imidazo[1,2-a]pyrazin-8-yl]amino]-2-ethyl-benzoyl]amino]methyl]piperidin-1-ium-1-yl]acetic acid; formic acid; formate]
- IC90 [1]: 150 nM
- IC90 [2]: 240 nM

Compound: CCc1cc(Nc2nccn3c(-c4ccc(-c5c[nH]nc5C)c(F)c4F)cnc23)ccc1C(=O)NCC1CC[N+](C)(CC2CNC2)CC1 (stereo not shown) [Example A2, N-[[1-(Azetidin-3-ylmethyl)-1-methyl-piperidin-1-ium-4-yl]methyl]-4-[[3-[2,3-difluoro-4-(3-methyl-1H-pyrazol-4-yl)phenyl]imidazo[1,2-a]pyrazin-8-yl]amino]-2-ethyl-benzamide; formic acid; formate]
- IC90 [1]: 50 nM
- IC90 [2]: 98 nM

Compound: CCc1cc(Nc2nccn3c(-c4ccc(-c5c[nH]nc5C(F)(F)F)c(F)c4F)cnc23)ccc1C(=O)NCC1CC[N+](C)(CC2CNC2)CC1 (stereo not shown) [Example B6, N-[[1-(azetidin-3-ylmethyl)-1-methyl-piperidin-1-ium-4-yl]methyl]-4-[[3-[2,3-difluoro-4-[3-(trifluoromethyl)-1H-pyrazol-4-yl]phenyl]imidazo[1,2-a]pyrazin-8-yl]amino]-2-ethyl-benzamide; formic acid; formate]
- IC90 [1]: 160 nM
- IC90 [2]: 250 nM

Compound: CCc1cc(Nc2nccn3c(-c4ccc(-c5c(C)nn(CCOC)c5C)c(F)c4F)cnc23)ccc1C(=O)NCC1CC[N+](C)(CC(N)=O)CC1 (stereo not shown) [Example C5, N-[[1-(2-amino-2-oxo-ethyl)-1-methyl-piperidin-1-ium-4-yl]methyl]-4-[[3-[2,3-difluoro-4-[1-(2-methoxyethyl)-3,5-dimethyl-pyrazol-4-yl]phenyl]imidazo[1,2-a]pyrazin-8-yl]amino]-2-ethyl-benzamide; formate]
- IC90 [1]: 680 nM
- IC90 [2]: 1900 nM

Compound: CCc1cc(Nc2nccn3c(-c4ccc(-c5c(C)n[nH]c5C)nc4F)cnc23)ccc1C(=O)NCC1CC[N+](C)(CC2CNC2)CC1 (stereo not shown) [Example B4, N-[[1-(azetidin-3-ylmethyl)-1-methyl-piperidin-1-ium-4-yl]methyl]-4-[[3-[6-(3,5-dimethyl-1H-pyrazol-4-yl)-2-fluoro-3-pyridyl]imidazo[1,2-a]pyrazin-8-yl]amino]-2-ethyl-benzamide; formic acid; formate]
- IC90 [1]: 430 nM
- IC90 [2]: 98 nM
